In US11058744B2, “Composition for treating prostate cancer” (GemVax & KAEL Co., Ltd., priority 2013, dated 2021):

Key:
[1] = system: LNCaP cell line; assay: Transwell migration assay on LNCaP cell line; assay type: cell-based, human; details: medium containing docetaxel (3 nM), no Pep1
Protocol: The effects of Pep1 on cancer cell migration were evaluated by trans-well assay.
The cancer cell migration was evaluated by using the reagents and materials and the cell line incubation method which are described in connection with Example 1. A migration assay method used for this experiment is as follows.
The LNCaP cell line was incubated on a 6-well plate overnight, and then treated with various concentrations of Pep1 (0, 1, 10, 30 μM) and incubated for 24 hours. Thereafter, the resultant LNCaP cell line was seeded at the cell population of 1×10^4/well on a trans-well plate. Three hours after, the upper compartment of each well was removed, and cells that had migrated downwards were immobilized, stained, and quantified.
A separate experiment was further performed to identify cell migration when Pep1 was co-administered with docetaxel. The LNCaP cell line was incubated on a 6-well plate overnight, and then, treated with various concentrations of Pep1(0, 1, 3, 10, and 30 μM) and incubated for 24 hours. Additionally, the cell line was incubated in a growth medium containing docetaxel (3 nM) for 48 hours, and then, seeded on a trans-well plate at a cell population of 1×10^4/well. Three hours after, the upper compartment of each well was removed, and cells that had migrated downwards were immobilized, stained, and quantified. […]

[2] = system: prostate cancer having a hormone tolerance; details: Beer et al, 2001; cited from earlier work
[3] = system: prostate cancer; details: administered together with docetaxel; Henly et al 2012; cited from earlier work

For `CC(=O)O[C@@]12CO[C@@H]1C[C@H](O)[C@@]1(C)C(=O)[C@H](O)C3=C(C)[C@@H](OC(=O)[C@H](O)[C@@H](NC(=O)OC(C)(C)C)c4ccccc4)C[C@@](O)([C@@H](OC(=O)c4ccccc4)[C@H]21)C3(C)C` [docetaxel], the “cancer cell migration (migrated cell number)” value [1] is given as “the cancer cell migration was increased” and the treatment efficiency [2] is given as “about 40%”.

In the case of `Nc1cccc2c1CN(C1CCC(=O)NC1=O)C2=O` (stereo not drawn) [lenalidomide], the anti-cancer effects [3] is given as “anti-cancer effects are significantly increased”.
